Where two headings read alike, the source gives them in different places.
Tests used:
Type in all cases: cell-based, human
[1] = test system: Ovarian cancer cell lines; assay: NCI anticancer screen, SRB assay, panel summary; settings: Homo sapiens
Outline: (§1)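 Compounds were tested across fifty three human cancer cell lines from nine tumour types. Each line got a dose-response curve of at least five concentrations at 10-fold dilutions, with continuous drug exposure and sulforhodamine B protein staining to estimate viability or growth.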

Renal cancer cell lines = assay: NCI anticancer screen, SRB assay, panel summary; settings: Homo sapiens, Renal panel
Outline: as §1

[2] = test system: Melanoma cancer cell lines; assay: NCI anticancer screen, SRB assay, panel summary; settings: for GI50: Homo sapiens
Outline: as §1

Colon cancer cell lines = assay: NCI anticancer screen, SRB assay, panel summary; settings: for GI50: Homo sapiens
Outline: as §1

Breast cancer cell lines = assay: NCI anticancer screen, SRB assay, panel summary; settings: Homo sapiens
Outline: as §1

[3] = test system: Non-small cell lung cancer cell lines; assay: NCI anticancer screen, SRB assay, panel summary; settings: Homo sapiens
Outline: as §1

[4] = test system: Leukemia cancer cell lines; assay: NCI anticancer screen, SRB assay, panel summary; settings: Homo sapiens
Outline: as §1

CNS cancer cell lines = assay: NCI anticancer screen, SRB assay, panel summary; settings: for GI50: Homo sapiens
Outline: as §1

[5] = test system: Prostate cancer cell lines; assay: NCI anticancer screen, SRB assay, panel summary
Outline: as §1

SN12C (renal) = assay: NCI anticancer screen, SRB assay, 48 h; settings: Homo sapiens, SN12C
Outline: as §1

A498 (renal) = assay: NCI anticancer screen, SRB assay, 48 h; settings: Homo sapiens
Outline: as §1

786-0 (renal) = assay: NCI anticancer screen, SRB assay, 48 h; settings: Homo sapiens
Outline: as §1

SK-MEL-28 (melanoma) = assay: NCI anticancer screen, SRB assay, 48 h; settings: Homo sapiens
Outline: as §1

SW-620 (colon) = assay: NCI anticancer screen, SRB assay, 48 h; settings: Homo sapiens
Outline: as §1

[6] = test system: NCI-H460 (non-small cell lung); assay: NCI anticancer screen, SRB assay, 48 h; settings: Homo sapiens
Outline: as §1

MALME-3M (melanoma) = assay: NCI anticancer screen, SRB assay, 48 h; settings: Homo sapiens
Outline: as §1

[7] = test system: K-562 (leukemia cell line); assay: NCI anticancer screen, SRB assay, 48 h; settings: Homo sapiens
Outline: as §1

ACHN (renal) = assay: NCI anticancer screen, SRB assay, 48 h; settings: Homo sapiens
Outline: as §1

SNB-19 (CNS) = assay: NCI anticancer screen, SRB assay, 48 h; settings: Homo sapiens
Outline: as §1

SK-MEL-5 (melanoma) = assay: NCI anticancer screen, SRB assay, 48 h; settings: Homo sapiens
Outline: as §1

UACC-257 (melanoma) = assay: NCI anticancer screen, SRB assay, 48 h; settings: Homo sapiens
Outline: as §1

OVCAR-8 (ovarian) = assay: NCI anticancer screen, SRB assay, 48 h; settings: Homo sapiens
Outline: as §1

[8] = test system: HOP-92 (non-small cell lung); assay: NCI anticancer screen, SRB assay, 48 h; settings: Homo sapiens
Outline: as §1

TD-47D (breast) = assay: NCI anticancer screen, SRB assay, 48 h; settings: Homo sapiens
Outline: as §1

KM12 (colon) = assay: NCI anticancer screen, SRB assay, 48 h; settings: Homo sapiens
Outline: as §1

[9] = test system: A549/ATCC (non-small cell lung); assay: NCI anticancer screen, SRB assay, 48 h; settings: Homo sapiens
Outline: as §1

SK-OV-3 (ovarian) = assay: NCI anticancer screen, SRB assay, 48 h; settings: Homo sapiens
Outline: as §1

HS 578T (breast) = assay: NCI anticancer screen, SRB assay, 48 h; settings: Homo sapiens
Outline: as §1

SF-539 (CNS) = assay: NCI anticancer screen, SRB assay, 48 h; settings: Homo sapiens
Outline: as §1

[10] = test system: EKVX (non-small cell lung); assay: NCI anticancer screen, SRB assay, 48 h; settings: Homo sapiens
Outline: as §1

[11] = test system: NCI-H226 (non-small cell lung); assay: NCI anticancer screen, SRB assay, 48 h; settings: Homo sapiens
Outline: as §1

CAKI-1 (renal) = assay: NCI anticancer screen, SRB assay, 48 h; settings: Homo sapiens
Outline: as §1

[12] = test system: NCI-H23 (non-small cell lung); assay: NCI anticancer screen, SRB assay, 48 h; settings: Homo sapiens
Outline: as §1

[13] = 48 h exposure, SRB, read-out: GI50
[14] = read-out: pGI50 (-log of molar concentration causing 50% inhibition of net cell growth) (converted)

SMILES: O=C(/C=C/c1cccc(O)c1)c1cccc(-n2cc(-c3ccccc3)[nH]c2=O)c1 [4a, 1-3-[(E)-3-(3-hydroxyphenyl)-2-propenoyl]phenyl-4-phenyl-2,3-dihydro-1H-2-imidazolone]
- GI50 ([1]; Ovarian panel, log of concentration in mol/L causing 50% inhibition of net cell growth, read-out: mean graph midpoint (MG_MID) of Log10 GI50 (converted)): 4.68 µM
- LC50 ([1]; Ovarian panel, log of concentration leading to 50% net cell death, read-out: mean graph midpoint (MG_MID) of Log10 LC50 (converted)): 46.8 µM
- GI50 ([1]; six ovarian cancer cell lines, exposure at least 48 hrs, read-out: GI50, range over the panel): 2.8 to 11.1 µM
- GI50 (Renal cancer cell lines; log of concentration in mol/L causing 50% inhibition of net cell growth, read-out: mean graph midpoint (MG_MID) of Log10 GI50 (converted)): 4.17 µM
- LC50 (Renal cancer cell lines; log of concentration leading to 50% net cell death, read-out: mean graph midpoint (MG_MID) of Log10 LC50 (converted)): 33.9 µM
- GI50 ([2]; Melanoma panel, log of concentration in mol/L causing 50% inhibition of net cell growth, read-out: mean graph midpoint (MG_MID) of Log10 GI50 (converted)): 4.47 µM
- GI50 ([2]; nine melanoma cancer cell lines, exposure at least 48 hrs, read-out: GI50, range over the panel): 1.85 to 8.26 µM
- mean graph midpoint (MG_MID) of Log10 LC50 ([2]; Melanoma panel, log of concentration leading to 50% net cell death): 4.35
- mean graph midpoint (MG_MID) of Log10 LC50 (Colon cancer cell lines; Colon panel, log of concentration leading to 50% net cell death): 4.55
- GI50 (Colon cancer cell lines; Colon panel, log of concentration in mol/L causing 50% inhibition of net cell growth, read-out: mean graph midpoint (MG_MID) of Log10 GI50 (converted)): 2.75 µM
- GI50 (Colon cancer cell lines; seven colon cancer cell lines, exposure at least 48 hrs, read-out: GI50, range over the panel): 1.83 to 4.09 µM
- GI50 (Breast cancer cell lines; Breast panel, log of concentration in mol/L causing 50% inhibition of net cell growth, read-out: mean graph midpoint (MG_MID) of Log10 GI50 (converted)): 4.79 µM
- LC50 (Breast cancer cell lines; Breast panel, log of concentration leading to 50% net cell death, read-out: mean graph midpoint (MG_MID) of Log10 LC50 (converted)): 72.4 µM
- GI50 (Breast cancer cell lines; five breast cancer cell lines, exposure at least 48 hrs, read-out: GI50, range over the panel): 2.47 to 9.32 µM
- GI50 ([3]; Non-small cell lung panel, log of concentration in mol/L causing 50% inhibition of net cell growth, read-out: mean graph midpoint (MG_MID) of Log10 GI50 (converted)): 6.92 µM
- GI50 ([3]; nine non-small cell lung cancer cell lines, exposure at least 48 hrs, read-out: GI50, range over the panel): 2.49 to 24.8 µM
- GI50 ([4]; Leukemia panel, log of concentration in mol/L causing 50% inhibition of net cell growth, read-out: mean graph midpoint (MG_MID) of Log10 GI50 (converted)): 2.29 µM
- LC50 ([4]; Leukemia panel, log of concentration leading to 50% net cell death, read-out: mean graph midpoint (MG_MID) of Log10 LC50 (converted)): ≥ 100 µM
- GI50 ([4]; two leukemia cancer cell lines (RPMI-8226 and K-562), exposure at least 48 hrs, read-out: GI50, range over the panel): 2.12 to 3.35 µM
- mean graph midpoint (MG_MID) of Log10 LC50 (CNS cancer cell lines; CNS panel, log of concentration leading to 50% net cell death): 4.60
- GI50 (CNS cancer cell lines; CNS panel, log of concentration in mol/L causing 50% inhibition of net cell growth, read-out: mean graph midpoint (MG_MID) of Log10 GI50 (converted)): 5.75 µM
- GI50 (CNS cancer cell lines; six CNS cancer cell lines, exposure at least 48 hrs, read-out: GI50, range over the panel): 1.61 to 18.2 µM
- GI50 ([5]; Homo sapiens, log of concentration in mol/L causing 50% inhibition of net cell growth, read-out: mean graph midpoint (MG_MID) of Log10 GI50 (converted)): 2.82 µM
- LC50 ([5]; Homo sapiens, log of concentration leading to 50% net cell death, read-out: mean graph midpoint (MG_MID) of Log10 LC50 (converted)): 49 µM
- mean graph midpoint (MG_MID) of Log10 TGI ([5]; log of concentration resulting in total inhibition of net cell growth): 4.90
- GI50 (SN12C (renal); SN 12C, read-out: pGI50 (-log of molar concentration causing 50% inhibition of net cell growth) (converted)): 3.16 µM
- GI50 (SN12C (renal); [13]): 3.14 µM
- GI50 (A498 (renal); [13]): 14.3 µM
- GI50 (A498 (renal); [14]): 14.5 µM
- GI50 (786-0 (renal); [13]): 2.98 µM
- GI50 (786-0 (renal); [14]): 2.95 µM
- GI50 (SK-MEL-28 (melanoma); [13]): 5.63 µM
- GI50 (SK-MEL-28 (melanoma); [14]): 5.62 µM
- GI50 (SW-620 (colon); [13]): 2.41 µM
- GI50 (SW-620 (colon); [14]): 2.4 µM
- GI50 [6, 13]: 2.49 µM
- GI50 [6, 14]: 2.51 µM
- GI50 (MALME-3M (melanoma); Malme-3M, read-out: pGI50 (-log of molar concentration causing 50% inhibition of net cell growth) (converted)): 6.17 µM
- GI50 (MALME-3M (melanoma); MALME-3M, 48 h exposure, SRB, read-out: GI50): 6.21 µM
- GI50 ([7]; K562, 48 h exposure, SRB, read-out: GI50): 3.35 µM
- GI50 ([7]; K562, read-out: pGI50 (-log of molar concentration causing 50% inhibition of net cell growth) (converted)): 3.39 µM
- GI50 (ACHN (renal); [13]): 2.76 µM
- GI50 (ACHN (renal); [14]): 2.75 µM
- GI50 (SNB-19 (CNS); [13]): 10.9 µM
- GI50 (SNB-19 (CNS); [14]): 11 µM
- GI50 (SK-MEL-5 (melanoma); [13]): 3.18 µM
- GI50 (SK-MEL-5 (melanoma); [14]): 3.16 µM
- GI50 (UACC-257 (melanoma); [13]): 7.68 µM
- GI50 (UACC-257 (melanoma); [14]): 7.76 µM
- GI50 (OVCAR-8 (ovarian); [13]): 2.8 µM
- GI50 (OVCAR-8 (ovarian); [14]): 2.82 µM
- GI50 [8, 13]: 5.04 µM
- GI50 [8, 14]: 5.01 µM
- GI50 (TD-47D (breast); [13]): 4.24 µM
- GI50 (TD-47D (breast); [14]): 4.27 µM
- GI50 (KM12 (colon); [13]): 1.83 µM
- GI50 (KM12 (colon); [14]): 1.82 µM
- GI50 [9, 13]: 3.89 µM
- GI50 [9, 14]: 3.89 µM
- GI50 (SK-OV-3 (ovarian); [13]): 11.1 µM
- GI50 (SK-OV-3 (ovarian); [14]): 11.2 µM
- GI50 (HS 578T (breast); [13]): 6.14 µM
- GI50 (HS 578T (breast); [14]): 6.17 µM
- GI50 (SF-539 (CNS); [13]): 1.98 µM
- GI50 (SF-539 (CNS); [14]): 2 µM
- GI50 [10, 13]: 15.6 µM
- GI50 [10, 14]: 15.5 µM
- GI50 [11, 13]: 24.8 µM
- GI50 [11, 14]: 24.5 µM
- GI50 (CAKI-1 (renal); [13]): 13.3 µM
- GI50 (CAKI-1 (renal); [14]): 13.2 µM
- GI50 [12, 13]: 3.35 µM
- GI50 [12, 14]: 3.39 µM

— patent US8889874B2, “Imidazolone-chalcone derivatives as potential anticancer agent and process for the preparation thereof” (Council of Scientific and Industrial Research, priority 2010, dated 2014)
